Here are results for 39 molecules from patent publication US9868748B2, “Thiazolopyrrolidine inhibitors of ROR- γ” (Vitae Pharmaceuticals, Inc., priority 2013, dated 2018).

Experiment [1] deals with full-length RORγt in Jurkat cells (Homo sapiens (Human), UniProt P51449). Briefly: RORγt 5xRORE Assay in Jurkat Cells (Assay 2). It counts as cell-based. As to conditions: Nanoluc luciferase reporter, 16-18 hrs. Put shortly: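 Inverse agonist activity was read as NanoGlo luminescence from conditioned medium after 16–18 h compound exposure (37 °C, 0.1% DMSO final). The cells were Jurkat, transiently transfected with RORγt and a secNluc reporter carrying five RORE repeats, seeded 80,000 per well in delipidated-serum RPMI.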
Sequence of full-length RORγt in Jurkat cells (P51449 other isoform, or with tags, fused parts or gaps): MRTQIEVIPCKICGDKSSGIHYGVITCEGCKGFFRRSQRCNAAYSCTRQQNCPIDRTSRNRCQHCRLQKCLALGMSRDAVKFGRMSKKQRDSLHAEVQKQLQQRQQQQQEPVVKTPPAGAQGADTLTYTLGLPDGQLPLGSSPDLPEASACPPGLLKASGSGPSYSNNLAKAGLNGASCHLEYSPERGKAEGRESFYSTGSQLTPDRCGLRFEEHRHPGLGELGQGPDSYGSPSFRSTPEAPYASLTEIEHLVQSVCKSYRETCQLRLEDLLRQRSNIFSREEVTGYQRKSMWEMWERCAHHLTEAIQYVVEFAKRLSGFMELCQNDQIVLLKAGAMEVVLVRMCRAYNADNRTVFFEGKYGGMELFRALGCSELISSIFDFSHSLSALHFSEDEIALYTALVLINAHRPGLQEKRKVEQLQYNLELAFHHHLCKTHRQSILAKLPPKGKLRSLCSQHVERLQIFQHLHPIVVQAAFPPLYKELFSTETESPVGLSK

The target in experiment [2] is recombinant RORγ Ligand Binding Domain (LBD) protein (Homo sapiens (Human), UniProt P51449). Kind of experiment: Radio-Ligand RORγ Binding Assay (Assay 1). To be noted: competition with 25-hydroxy [26,27-3H]-cholesterol, SPA, read-out: RORγ Binding Ki Range*. Put shortly:
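Recombinant human RORγ ligand binding domain (6×His-GST fusion, 24 nM stock) competed with tritiated 25-hydroxycholesterol (8.6 nM stock) in HEPES buffer pH 7.4 with detergents and DTT; poly-Lys YSi SPA beads, room temperature, tritium SPA signal. Four-parameter IC50 from semi-log dilutions, normalised to DMSO and 10 μM T0901317, then Ki via KD equation.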

Setting [3] is: Table 9, read-out: RORγt5X IC50 Range*.
[4] abbreviates: Table 8, read-out: RORγt5X IC50 Range*.

pIC50, pKi: −log10 of the molar value. Like-named read-outs stand apart in the source and are kept apart here.

Sequence of recombinant RORγ Ligand Binding Domain (LBD) protein (P51449 269-508): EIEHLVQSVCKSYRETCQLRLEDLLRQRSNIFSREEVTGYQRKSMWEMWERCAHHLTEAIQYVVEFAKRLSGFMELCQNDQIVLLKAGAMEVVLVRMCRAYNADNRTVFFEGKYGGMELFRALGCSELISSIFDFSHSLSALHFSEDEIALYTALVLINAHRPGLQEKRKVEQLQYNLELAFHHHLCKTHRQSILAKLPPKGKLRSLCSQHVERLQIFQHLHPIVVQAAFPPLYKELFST

For the molecule `CC(C)[C@H]1c2nc(C(=O)NCc3ccc(S(C)(=O)=O)cc3)sc2CN1Cc1ccc(Cl)cn1` [drawing 378], the pIC50 in experiment [1] (setting [3]) was 6.00 to 7.00. In addition, in experiment [2] (Table 9), the pKi is > 7.00.

Turning to `CC(C)[C@H]1c2nc(NC(=O)Cc3ccc(S(C)(=O)=O)cc3)sc2CN1Cc1ccc(C(F)(F)F)cc1` [I-B19], in experiment [1] (setting [4]), the pIC50 was > 7.00. Moreover, in experiment [2] (Table 8), the pKi was > 7.00.

`CCS(=O)(=O)c1ccc(CC(=O)Nc2nc3c(s2)CN(Cc2ccc(=O)n(C(F)F)c2)[C@H]3C(C)C)cc1`: the pIC50 in experiment [1] (setting [3]) is < 6.00. In experiment [2] (Table 9), the pKi was > 7.00.

Consider `CCS(=O)(=O)c1ccc(CNC(=O)c2nc3c(s2)CN(C[C@H]2CC[C@H](C(F)(F)F)CC2)[C@H]3C(C)C)nc1`, for which the pIC50 in experiment [1] (setting [3]) was 6.00 to 7.00. The pKi in experiment [2] (Table 9) was 6.00 to 7.00.

Regarding `CCS(=O)(=O)c1ccc(CC(=O)Nc2nc3c(s2)CN(Cc2cc(Cl)ccc2Cl)[C@@H]3C(C)C)cc1`, the pIC50 in experiment [1] (setting [3]) was < 6.00. In experiment [2] (Table 9), the pKi was > 7.00.

With `CC(C)[C@@H]1c2nc(NC(=O)Cc3ccc(S(C)(=O)=O)cc3)sc2CN1[C@H](C)c1ccc(C(F)(F)F)cc1` (single isomer, unassigned), in experiment [1] (setting [3]), the pIC50 is 6.00 to 7.00. Further, in experiment [2] (Table 9), the pKi is 6.00 to 7.00.

Regarding `CCS(=O)(=O)c1ccc(CC(=O)Nc2nc3c(s2)CN([C@@H](C)c2ccc(C(F)(F)F)cc2F)[C@H]3C(C)C)cc1` [I-A37], the pIC50 in experiment [1] (setting [4]) was > 7.00. For the same molecule, the pKi in experiment [2] (Table 8) was > 7.00.

Take `CCS(=O)(=O)c1ccc(CC(=O)Nc2nc3c(s2)CN(C[C@H]2CC[C@H](C(F)(F)F)NC2)[C@H]3C(C)C)nc1` (single isomer, unassigned) [drawing 212]: in experiment [1] (setting [3]), the pIC50 is < 6.00. Further, the pKi in experiment [2] (Table 9) was > 7.00.

For the molecule `CCS(=O)(=O)c1ccc(CNC(=O)c2nc3c(s2)CN(C[C@H]2CC[C@H](C(F)(F)F)CC2)[C@H]3C(C)C)cc1` (relative stereo), the pIC50 in experiment [1] (setting [3]) was 6.00 to 7.00. The pKi in experiment [2] (Table 9) was > 7.00.

`CCS(=O)(=O)c1ccc(CC(=O)Nc2nc3c(s2)CN(C[C@H]2CC[C@](OC)(C(F)(F)F)CC2)[C@H]3C(C)C)nc1` (single isomer, unassigned): in experiment [1] (setting [3]), the pIC50 is > 7.00. Further, in experiment [2] (Table 9), the pKi was > 7.00.

In the case of `CCS(=O)(=O)c1ccc(CC(=O)Nc2nc3c(s2)CN(C[C@H]2CC[C@@](OC)(C(F)(F)F)CC2)[C@H]3C(C)C)nc1` [I-C8], in experiment [1] (setting [4]), the pIC50 was > 7.00. Besides, the pKi in experiment [2] (Table 8) is > 7.00.

In the case of `CCS(=O)(=O)c1ccc(CNC(=O)c2nc3c(s2)CN(Cc2ccc4c(c2)OC(F)(F)O4)[C@H]3C(C)C)nc1`, the pIC50 in experiment [1] (setting [3]) was > 7.00. For the same molecule, the pKi in experiment [2] (Table 9) was > 7.00.

On to `CCS(=O)(=O)c1ccc(CC(=O)Nc2nc3c(s2)CN(c2nc4cccnc4s2)[C@H]3C(C)C)cc1`, for which the pIC50 in experiment [1] (setting [3]) is < 6.00. Also, the pKi in experiment [2] (Table 9) is > 7.00.

Take `CC[C@H]1c2nc(NC(=O)Cc3ccc(F)cc3)sc2CN1Cc1ccc(Cl)cc1`: the pIC50 in experiment [1] (setting [3]) was 6.00 to 7.00. Besides, the pKi in experiment [2] (Table 9) was > 7.00.

With `CCS(=O)(=O)c1ccc(CC(=O)Nc2nc3c(s2)CN(C[C@H]2CC[C@](C)(C#N)CC2)[C@H]3C(C)C)nc1` (single isomer, unassigned), in experiment [1] (setting [3]), the pIC50 is < 6.00. Also, the pKi in experiment [2] (Table 9) is > 7.00.

For the molecule `CC(C)[C@H]1c2nc(NC(=O)Cc3ccc(S(C)(=O)=O)cc3)sc2CN1Cc1ccc(-c2nnnn2C)cc1`, the pIC50 in experiment [1] (setting [3]) was > 7.00. The pKi in experiment [2] (Table 9) was > 7.00.

Consider `CCS(=O)(=O)c1ccc(CC(=O)Nc2nc3c(s2)CN(C[C@H]2CC[C@@](O)(C(F)(F)F)CC2)[C@H]3C(C)C)cc1` (single isomer, unassigned), for which the pIC50 in experiment [1] (setting [3]) is > 7.00. Moreover, in experiment [2] (Table 9), the pKi is > 7.00.

Turning to `CC[C@@H]1c2nc(NC(=O)Cc3ccc(S(=O)(=O)CC)cc3)sc2CN1Cc1ccccc1F`, the pIC50 in experiment [1] (setting [3]) was < 6.00. Moreover, the pKi in experiment [2] (Table 9) was > 7.00.

Consider `CCS(=O)(=O)c1ccc(CC(=O)Nc2nc3c(s2)CN(Cc2ccc(C#N)cn2)[C@@]3(C)C(C)C)cc1` [drawing 270], for which the pIC50 in experiment [1] (setting [3]) was > 7.00. Further, the pKi in experiment [2] (Table 9) was > 7.00.

Take `CC(C)[C@H]1c2nc(NC(=O)Cc3ccc(C(N)=O)cc3)sc2CN1Cc1ccc(Cl)cc1`: the pIC50 in experiment [1] (setting [3]) was 6.00 to 7.00. Moreover, in experiment [2] (Table 9), the pKi is > 7.00.

Consider `CCS(=O)(=O)c1ccc(CC(=O)Nc2nc3c(s2)CN(Cc2ccc(C#N)c(OC)n2)[C@H]3C(C)C)cc1` [I-A51], for which, in experiment [1] (setting [4]), the pIC50 was > 7.00. Besides, in experiment [2] (Table 8), the pKi is > 7.00.

With `CCS(=O)(=O)c1ccc(CC(=O)Nc2nc3c(s2)CN(c2ncc(Cl)c(C)n2)[C@H]3C(C)C)cc1`, in experiment [1] (setting [3]), the pIC50 was < 6.00. Moreover, the pKi in experiment [2] (Table 9) is > 7.00.

For the molecule `CCS(=O)(=O)c1cnc(CNC(=O)c2nc3c(s2)CN(Cc2ccc(C(F)(F)F)cc2)[C@H]3C(C)C)nc1`, the pIC50 in experiment [1] (setting [3]) is 6.00 to 7.00. Further, the pKi in experiment [2] (Table 9) is > 7.00.

In the case of `CCS(=O)(=O)c1ccc(CC(=O)Nc2nc3c(s2)CN(C[C@H]2CC[C@@H](C(=O)OC)CC2)[C@H]3C(C)C)cc1` (single isomer, unassigned), the pIC50 in experiment [1] (setting [3]) is < 6.00. Further, the pKi in experiment [2] (Table 9) was > 7.00.

In the case of `CCS(=O)(=O)c1ccc(CC(=O)Nc2nc3c(s2)CN(Cc2ccccc2)[C@@H]3C(C)C)cc1`, the pIC50 in experiment [1] (setting [3]) was < 6.00. Also, the pKi in experiment [2] (Table 9) was > 7.00.

On to `CC(C)[C@H]1c2nc(NC(=O)Cc3ccccc3)sc2CN1Cc1ccc(Cl)cc1`, for which the pIC50 in experiment [1] (setting [3]) is < 6.00. Further, the pKi in experiment [2] (Table 9) was 6.00 to 7.00.

For `CC[C@@]1(C)c2nc(NC(=O)Cc3ccc(S(=O)(=O)CC)cc3)sc2CN1Cc1ccc(C#N)cc1`, the pIC50 in experiment [1] (setting [3]) was 6.00 to 7.00. Moreover, the pKi in experiment [2] (Table 9) was > 7.00.

In the case of `CCS(=O)(=O)c1ccc(CC(=O)Nc2nc3c(s2)CN([C@H](C)c2ccccc2)[C@@H]3C(C)C)cc1` (single isomer, unassigned), the pIC50 in experiment [1] (setting [3]) is < 6.00. Moreover, the pKi in experiment [2] (Table 9) was > 7.00.

Turning to `CCS(=O)(=O)c1ccc(CC(=O)Nc2nc3c(s2)CN([C@H](C)Cc2ccccc2C(F)(F)F)[C@@H]3C(C)C)cc1`, the pIC50 in experiment [1] (setting [3]) is < 6.00. Also, in experiment [2] (Table 9), the pKi is > 7.00.

For `CCS(=O)(=O)c1ccc(CC(=O)Nc2nc3c(s2)C(C)N(Cc2ccc(C#N)cc2)[C@H]3C(C)C)cc1` (stereo partly drawn), in experiment [1] (setting [3]), the pIC50 was 6.00 to 7.00. For the same molecule, in experiment [2] (Table 9), the pKi is > 7.00.

`CCS(=O)(=O)c1ccc(CC(=O)Nc2nc3c(s2)CN(Cc2ccc(-c4ccc(=O)n(C)c4)cc2)[C@H]3C(C)C)cc1` [I-A19, (S)-2-(4-(ethylsulfonyl)phenyl)-N-(4-isopropyl-5-(4-(1-methyl-6-oxo-1,6-dihydropyridin-3-yl)benzyl)-5,6-dihydro-4H-pyrrolo[3,4-d]thiazol-2-yl)acetamide]: the pIC50 in experiment [1] (setting [4]) is > 7.00. Further, the pKi in experiment [2] (Table 8) was > 7.00.

As to `CC[C@H]1c2nc(NC(=O)Cc3ccc(S(=O)(=O)C(F)F)cc3)sc2CN1Cc1ccc(Cl)cc1`, the pIC50 in experiment [1] (setting [3]) was 6.00 to 7.00. In experiment [2] (Table 9), the pKi was > 7.00.

Take `CC(C)[C@H]1c2nc(NC(=O)Cc3ccc(S(C)(=O)=O)cc3)sc2CN1Cc1ccc(F)cc1`: the pIC50 in experiment [1] (setting [3]) is < 6.00. Besides, in experiment [2] (Table 9), the pKi is > 7.00.

Take `CC[C@H]1c2nc(NC(=O)Cc3ccc(S(C)(=O)=O)cc3)sc2CN1Cc1ccc2nn[nH]c2c1`: in experiment [1] (setting [3]), the pIC50 is 6.00 to 7.00. Besides, in experiment [2] (Table 9), the pKi is > 7.00.

Take `CCS(=O)(=O)c1ccc(CC(=O)Nc2nc3c(s2)CN(C[C@@H]2CC[C@@H](C(F)(F)F)N(C)C2)[C@H]3C(C)C)cc1` [I-A29]: the pIC50 in experiment [1] (setting [4]) is > 7.00. In addition, the negative-log Ki (pKi) in experiment [2] (Table 8) was > 7.00.

For `CCS(=O)(=O)c1ccc(CC(=O)Nc2nc3c(s2)CN(Cc2ccc(OC(F)F)cn2)[C@H]3C(C)C)cc1` [I-A54], in experiment [1] (setting [4]), the pIC50 is > 7.00. Besides, in experiment [2] (Table 8), the pKi was > 7.00.

Regarding `CCS(=O)(=O)c1ccc(CC(=O)Nc2nc3c(s2)CN(c2nccc(C4CC4)n2)[C@@H]3C(C)C)cc1`, in experiment [1] (setting [3]), the pIC50 is < 6.00. Besides, the pKi in experiment [2] (Table 9) was > 7.00.

Consider `CCS(=O)(=O)c1ccc(CC(=O)Nc2nc3c(s2)CN(Cc2ccc(C#N)cc2)[C@H]3C(C)C)nc1` [I-C11], for which, in experiment [1] (setting [4]), the pIC50 was > 7.00. In addition, in experiment [2] (Table 8), the pKi was > 7.00.

Consider `CCS(=O)(=O)c1ccc(CC(=O)Nc2nc3c(s2)CN([C@@H](C)c2ccc(Br)cc2F)[C@H]3C(C)C)cc1` [I-A25], for which, in experiment [1] (setting [4]), the pIC50 was > 7.00. Besides, in experiment [2] (Table 8), the pKi was > 7.00.
